Results: patent publication US11236046B2, “Substituted heterocyclic sulfonamide compounds useful as TRPA1 modulators” (Genentech, Inc., priority 2013, dated 2022)

What follows are compounds tested against human TRPA1 (Homo sapiens (Human), UniProt O75762) (assay: FLIPR Tetra calcium influx assay, block of cinnamaldehyde-induced calcium influx in CHO cells expressing TRPA1 (human)). Settings: 20 min compound incubation, 75 uM cinnamaldehyde (~EC80), Hill coefficient fixed to 1.5, read-out: hTRPA1 AUC IC50.
Type: cell-based
How it was run: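 CHO cells loaded with calcium dye, preincubated with compounds 20 min at room temperature in HBSS/20 mM HEPES pH 7.4 with 0.02% BSA. Channels activated by ~EC80 cinnamaldehyde (75 uM human, 45 uM rat); block of calcium influx read on FLIPR Tetra, IC50 fitted with fixed Hill coefficient.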

human TRPA1, sequence (O75762 whole entry): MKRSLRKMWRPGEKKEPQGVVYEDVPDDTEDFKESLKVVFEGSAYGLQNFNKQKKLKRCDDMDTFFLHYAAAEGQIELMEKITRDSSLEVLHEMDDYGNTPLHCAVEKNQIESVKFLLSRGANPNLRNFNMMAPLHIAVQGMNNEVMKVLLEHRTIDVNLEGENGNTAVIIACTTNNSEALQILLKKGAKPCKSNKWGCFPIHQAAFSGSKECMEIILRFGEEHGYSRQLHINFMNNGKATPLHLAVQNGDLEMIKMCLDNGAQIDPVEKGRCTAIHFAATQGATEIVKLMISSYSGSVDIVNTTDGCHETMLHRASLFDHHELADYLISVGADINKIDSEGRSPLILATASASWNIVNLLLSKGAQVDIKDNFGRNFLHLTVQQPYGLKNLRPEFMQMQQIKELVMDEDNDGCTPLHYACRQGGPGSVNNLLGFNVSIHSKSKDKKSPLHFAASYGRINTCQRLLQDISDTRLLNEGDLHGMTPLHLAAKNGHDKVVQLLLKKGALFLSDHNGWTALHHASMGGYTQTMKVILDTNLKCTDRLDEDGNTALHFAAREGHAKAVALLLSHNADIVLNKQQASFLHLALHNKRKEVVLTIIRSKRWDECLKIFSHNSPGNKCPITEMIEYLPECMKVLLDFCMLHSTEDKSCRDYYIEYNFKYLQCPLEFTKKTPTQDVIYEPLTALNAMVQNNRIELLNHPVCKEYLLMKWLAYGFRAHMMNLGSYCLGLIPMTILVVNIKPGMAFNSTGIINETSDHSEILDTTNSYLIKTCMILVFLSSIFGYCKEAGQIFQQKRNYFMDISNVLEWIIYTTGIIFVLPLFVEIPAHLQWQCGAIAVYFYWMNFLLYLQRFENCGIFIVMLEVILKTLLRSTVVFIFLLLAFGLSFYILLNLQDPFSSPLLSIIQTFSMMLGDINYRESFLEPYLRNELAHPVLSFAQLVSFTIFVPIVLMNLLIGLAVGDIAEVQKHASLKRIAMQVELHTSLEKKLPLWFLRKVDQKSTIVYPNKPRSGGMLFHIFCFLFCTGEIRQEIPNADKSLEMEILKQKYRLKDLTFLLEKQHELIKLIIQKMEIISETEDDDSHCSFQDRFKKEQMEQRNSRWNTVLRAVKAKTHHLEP

Compound	IC50 [nM]
O=C(NCc1cn(-c2ccc(C(F)(F)F)nc2)nc1Cl)[C@@H]1CCN1S(=O)(=O)c1ccc(F)cc1 [Example 199, (2S)—N-([3-chloro-1-[6-(trifluoromethyl)pyridin-3-yl]-1H-pyrazol-4-yl]methyl)-1-[(4-fluorobenzene)sulfonyl]azetidine-2-carboxamide]	138
(2S,4R)-4-fluoro-1-(4-fluorophenyl)sulfonyl-N-[[3-fluoro-5-[2-(trifluoromethyl)thiazol-5-yl]phenyl]methyl]pyrrolidine-2-carboxamide [Example 174]	12
O=C(NCc1cc(F)cc(-c2ccc(C(F)(F)F)nc2)c1)[C@@H]1C[C@@H](F)CN1S(=O)(=O)c1ccc(F)cc1 [Example 139, (2S,4R)-4-fluoro-1-(4-fluorophenyl)sulfonyl-N-[[3-fluoro-5-[6-(trifluoromethyl)-3-pyridyl]phenyl]methyl]pyrrolidine-2-carboxamide]	16
COc1cc(CNC(=O)[C@@H]2C[C@@H](F)CN2S(=O)(=O)c2ccc(F)cc2)cc(-c2ccc(C(F)(F)F)nc2)c1 [Example 116, (2S,4R)-4-fluoro-1-(4-fluorophenyl)sulfonyl-N-[[3-methoxy-5-[6-(trifluoromethyl)-3-pyridyl]phenyl]methyl]pyrrolidine-2-carboxamide]	47
O=C(NCc1ccnc(-c2ccc(OC(F)(F)F)cc2)c1)[C@@H]1C[C@@H](F)CN1S(=O)(=O)c1ccc(F)cc1 [Example 159, (2S,4R)-4-fluoro-1-(4-fluorophenyl)sulfonyl-N-[[2-[4-(trifluoromethoxy)phenyl]-4-pyridyl]methyl]pyrrolidine-2-carboxamide]	18
O=C(NCc1cc(F)cc(-c2ccc(C(F)F)cn2)c1)[C@@H]1C[C@@H](F)CN1S(=O)(=O)c1ccc(F)cc1 [Example 75, (2S,4R)—N-[[3-[5-(difluoromethyl)-2-pyridyl]-5-fluoro-phenyl]methyl]-4-fluoro-1-(4-fluorophenyl)sulfonyl-pyrrolidine-2-carboxamide]	31

Further lines, results first:

IC50 [nM]	Compound
86	O=C(NCc1cc(F)cc(-c2nc(C(F)(F)F)cs2)c1)[C@@H]1C[C@@H](F)CN1S(=O)(=O)c1ccc(F)cc1 [Example 175, (2S,4R)-4-fluoro-1-(4-fluorophenyl)sulfonyl-N-[[3-fluoro-5-[4-(trifluoromethyl)thiazol-2-yl]phenyl]methyl]pyrrolidine-2-carboxamide]
78	O=C(NCc1cn(-c2ccc(C(F)(F)F)nc2)nc1Cl)[C@@H]1C[C@@H](F)CN1S(=O)(=O)c1ccc(F)cc1 [Example 146, (2S,4R)—N-([3-chloro-1-[6-(trifluoromethyl)pyridin-3-yl]-1H-pyrazol-4-yl]methyl)-4-fluoro-1-[(4-fluorobenzene)sulfonyl]pyrrolidine-2-carboxamide]
156	O=C(NCc1cc(-c2ccc(C(F)(F)F)nc2)ncn1)[C@@H]1C[C@H]2C[C@H]2N1S(=O)(=O)c1ccc(F)cc1 [Example 123, (1R,3S,5R)-2-(4-fluorophenyl)sulfonyl-N-[[6-[6-(trifluoromethyl)-3-pyridyl]pyrimidin-4-yl]methyl]-2-azabicyclo[3.1.0]hexane-3-carboxamide]
14	O=C(NCc1cc(F)cc(-c2cnc(C(F)(F)F)cn2)c1)[C@@H]1C[C@@H](F)CN1S(=O)(=O)c1ccc(F)cc1 [Example 122, (2S,4R)-4-fluoro-1-(4-fluorophenyl)sulfonyl-N-[[3-fluoro-5-[5-(trifluoromethyl)pyrazin-2-yl]phenyl]methyl]pyrrolidine-2-carboxamide]
78	O=C(NCc1cn(-c2ccc(C(F)(F)F)cc2)nc1Cl)[C@@H]1C[C@@H](F)CN1S(=O)(=O)c1ccc(F)cc1 [Example 137, (2S,4R)—N-([3-chloro-1-[4-(trifluoromethyl)phenyl]-1H-pyrazol-4-yl]methyl)-4-fluoro-1-[(4-fluorobenzene)sulfonyl]pyrrolidine-2-carboxamide]
